Experimental data taken from ChEMBL document CHEMBL5120937, “Design, Synthesis, and Biological Activity of l-1'-Homologated Adenosine Derivatives” (ACS Med Chem Lett, 2022).
pEC50, pKi: −log10 of the molar value.

Tests used:
[1] = biological target: T1, Peroxisome proliferator-activated receptor delta (Homo sapiens) (UniProt Q03181); assay: Binding affinity to PPARdelta (unknown origin) at 10 uM by TR-FRET based LanthaScreen competitive binding assay relative to control
T1 sequence (whole entry): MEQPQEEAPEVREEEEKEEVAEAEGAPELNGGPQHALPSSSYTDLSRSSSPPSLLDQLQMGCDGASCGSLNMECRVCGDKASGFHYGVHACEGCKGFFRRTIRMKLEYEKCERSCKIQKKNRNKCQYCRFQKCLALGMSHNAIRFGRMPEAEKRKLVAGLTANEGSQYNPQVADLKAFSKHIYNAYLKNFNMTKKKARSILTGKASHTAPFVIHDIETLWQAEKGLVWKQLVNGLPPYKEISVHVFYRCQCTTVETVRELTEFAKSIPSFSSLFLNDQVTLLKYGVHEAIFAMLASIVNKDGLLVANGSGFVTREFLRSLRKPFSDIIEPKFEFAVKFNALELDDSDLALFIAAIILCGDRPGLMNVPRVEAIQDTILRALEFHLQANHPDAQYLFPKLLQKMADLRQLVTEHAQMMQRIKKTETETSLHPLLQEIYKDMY

[2] = biological target: T2, Peroxisome proliferator-activated receptor gamma (Homo sapiens) (UniProt P37231); assay: Binding affinity to PPARgamma (unknown origin) at 10 uM by TR-FRET based LanthaScreen competitive binding assay relative to control
T2 sequence (whole entry): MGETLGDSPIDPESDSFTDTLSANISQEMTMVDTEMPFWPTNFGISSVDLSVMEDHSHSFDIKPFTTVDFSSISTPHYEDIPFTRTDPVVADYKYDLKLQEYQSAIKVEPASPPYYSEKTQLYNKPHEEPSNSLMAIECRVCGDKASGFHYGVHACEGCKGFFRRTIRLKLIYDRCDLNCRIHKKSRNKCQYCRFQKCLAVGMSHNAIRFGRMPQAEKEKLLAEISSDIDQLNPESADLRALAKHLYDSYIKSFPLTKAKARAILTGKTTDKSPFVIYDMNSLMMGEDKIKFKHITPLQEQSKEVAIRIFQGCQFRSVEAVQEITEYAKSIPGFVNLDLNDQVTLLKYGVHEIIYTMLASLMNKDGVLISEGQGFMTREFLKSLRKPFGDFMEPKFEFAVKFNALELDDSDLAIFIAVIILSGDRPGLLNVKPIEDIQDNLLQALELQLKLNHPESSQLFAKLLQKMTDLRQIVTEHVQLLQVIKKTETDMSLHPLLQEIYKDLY

[3] = biological target: T3, Peroxisome proliferator-activated receptor alpha (Homo sapiens) (UniProt Q07869); assay: Binding affinity to PPARalpha (unknown origin) at 10 uM by TR-FRET based LanthaScreen competitive binding assay relative to control
T3 sequence (whole entry): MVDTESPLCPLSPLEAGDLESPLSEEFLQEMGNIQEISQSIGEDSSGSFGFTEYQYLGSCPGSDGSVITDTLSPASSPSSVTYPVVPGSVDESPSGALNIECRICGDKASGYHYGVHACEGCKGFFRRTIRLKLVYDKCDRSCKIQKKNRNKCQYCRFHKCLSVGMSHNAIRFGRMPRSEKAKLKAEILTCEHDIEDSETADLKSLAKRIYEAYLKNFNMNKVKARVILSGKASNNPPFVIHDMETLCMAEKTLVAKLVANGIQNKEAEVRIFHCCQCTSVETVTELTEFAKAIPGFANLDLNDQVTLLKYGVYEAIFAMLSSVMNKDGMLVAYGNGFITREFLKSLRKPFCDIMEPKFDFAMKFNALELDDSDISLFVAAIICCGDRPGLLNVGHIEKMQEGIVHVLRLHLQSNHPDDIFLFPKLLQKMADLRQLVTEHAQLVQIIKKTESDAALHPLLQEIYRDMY

[4] = biological target: T4, Peroxisome proliferator-activated receptor delta (Homo sapiens, UniProt Q03181)
T4 sequence (Q03181 whole entry): T1 sequence (whole entry)
Description: Binding affinity to PPARdelta (unknown origin) by TR-FRET based LanthaScreen competitive binding assay

[5] = test system: Mesenchymal stem cells; assay: Induction of adipogenesis in human differentiated BMMSC cells assessed as fold increase in adiponectin production at 10 uM measured on 5 day in presence of IDX induction medium by ELISA; format: functional
[6] = test system: Mesenchymal stem cells; assay: cells; settings: Homo sapiens, 120 h
Description: Induction of adipogenesis in human differentiated BMMSC cells assessed as increase in adiponectin secretion and measured on 5 day in presence of IDX induction medium by ELISA

Row | Compound | Activity [1] | Activity [2] | Activity [3] | further results
1 | O[C@H]1[C@@H](O)CO[C@@H]1Cn1cnc2c(NCc3cccc(F)c3)nc(Cl)nc21 | 29.5% | 6.3% | 14.5% | –
2 | O[C@H]1[C@@H](O)CO[C@@H]1Cn1cnc2c(NCc3cccc(Br)c3)nc(Cl)nc21 | – | 25.5% | 8.7% | pKi [4]: 5.47
3 | COc1ccc(Cl)cc1C(=O)NCCc1ccc(S(=O)(=O)NC(=O)NC2CCCCC2)cc1 [GLYBURIDE] | – | – | – | fold change (FC) [5]: 6.2
4 | O[C@H]1[C@@H](O)CO[C@@H]1Cn1cnc2c(NCc3cccc(Cl)c3)nc(Cl)nc21 | – | 10.7% | 19.1% | Activity ([1]; filed as antagonist): 46.3%
5 | O[C@H]1[C@@H](O)CO[C@@H]1Cn1cnc2c(NCc3cccc(I)c3)nc(Cl)nc21 | – | – | 17.2% | –
6 | O[C@@H]1[C@H](O)CO[C@H]1Cn1cnc2c(NCc3cccc(I)c3)nc(Cl)nc21 | – | – | 3.9% | –
7 | CCc1ccc(CCOc2ccc(CC3SC(=O)NC3=O)cc2)nc1 (stereo unspecified) [PIOGLITAZONE] | – | – | – | fold change (FC) [5]: 7.8; pEC50 [6]: 6.05

The next lines start with results.

Row | Activity [1] | Activity [2] | Activity [3] | Compound | further results
8 | 1.2% | 12.5% | 3.8% | O[C@H]1[C@@H](O)CO[C@@H]1Cn1cnc2c(NCc3cccc(Br)c3)ncnc21 | –
9 | 16.3% | 3.9% | 13.2% | O[C@H]1[C@@H](O)CO[C@@H]1Cn1cnc2c(NCc3cccc(I)c3)ncnc21 | –
10 | 21.5% | 5.9% | 3.1% | O[C@H]1[C@@H](O)CO[C@@H]1Cn1cnc2c(NCc3cccc(Cl)c3)ncnc21 | –
11 | 8% | 11.5% | 7.6% | O[C@H]1[C@@H](O)CO[C@@H]1Cn1cnc2c(NCc3cccc(F)c3)ncnc21 | –
